Results as given in EP4410284A1, “COMPOUND AND METHOD FOR THE TREATMENT OF ZELLWEGER SPECTRUM DISORDER” (Apteeus, priority 2023, dated 2024).
Counter-ions that a name gives are not always drawn. Like-named read-outs stand apart in the source and are kept apart here.

Key:
GM 16865 = assay: Catalase import immunofluorescence (% importing cells); assay type: cell-based, human; details: GM 16865 (PEX26); for Importing cells (%): at the lower dose leading to the maximum effect (see E22)
Procedure: Primary fibroblasts were seeded at 500-700 cells per well in 384-well plates and grown at 37°C overnight. Cells were treated with test compounds or 0.1% DMSO for 3 days. After 3 days and a wash with PBS, cells were fixed with 4% paraformaldehyde (Electron Microscopy Sciences) in PBS for 20 minutes. After 3 washes with PBS, the cells were permeabilized and blocked with 0.3% Triton X-100, 1% BSA in PBS for 30 minutes at room temperature followed by 3 washes with 1% BSA in PBS. The cells were incubated with a rabbit Catalase polyclonal antibody (#12980 Cell signaling) overnight at 4°C. Following 3 washes with PBS containing 0.1% Tween-20, the cells were incubated for 1 h at room temperature with a conjugated goat anti-rabbit secondary antibody Alexa Fluor 647 (Ab150083-Abcam). The cells were then washed 3 times with PBS and Hoechst 33342 (H3570-ThermoFisher Scientific) + HCS Cellmask Blue (H32720 - ThermoFisher Scientific) staining was performed at 0.1 µg/ml and 0.4 µg/mL respectively for 30 minutes at room temperature. The cells were finally washed 3 times with PBS and fluorescent images were acquired using the INCell Analyzer 6000 imaging platform (GE Healthcare Life Sciences).
Images analysis was done using Columbus analysis software (PerkinElmer). DAPI channel was used to find nuclei (Hoechst 33342) and cytoplasm (HCS CellMask Blue) and border objects were removed. Cy5 channel (AlexaFluor 647) was used to find spots corresponding to peroxisomes which correctly import catalase. Cells were classified as importing or non-importing cells using a linear classifier method after training with images of wells containing Healthy cells and PEX1 deficient cells. The number of importing or non-importing cells was calculated. Finally, results were expressed as % of importing cells.
Among the HDAC inhibitors of example 2, 4 were tested on other cells which are PEX1, PEX6 or PEX26 deficient.

GM16513 cells [1] = assay: Plasmalogens synthesis (LC-MS/MS); assay type: cell-based, human
Procedure: The assay was performed in T75 culture flasks for 3 or 10 days. The medium was replaced by fresh medium every 2-3 days. After 3 or 10 days, the cells were harvested and lysated in water (100-200 µL) by freeze/thaw cycle and sonication for 5 min. Total proteins were quantified using BCA assay and 100 µg of total proteins were used for each sample.
After cell lysis, the samples were dried using a rotating evaporator (Genevac EZ-2, SP Scientific), set at 40°C for 2h under vacuum. Then a solution containing water/acetonitrile 20/80 v/v was added to the wells. Before analysis, the samples were centrifuged at 4000 rpm for 20 min at room temperature. For the separation of plasmalogens by liquid chromatography, a Waters Acquity ultra-performance liquid chromatography (UPLC) system (Acquity I-Class, Waters) was used. A Waters Acquity UPLC BEH (Ethylene Bridged Hybrid) C8 column (2.1 × 50mm, particle size 1.7 µm, pore size 130 A, 2.1mm inner diameter) preceded by a metal pre-filter (KrudKatcher Ultra HPLC In-Line Filter, AF0-8497, Phenomenex) was used for separation. The column temperature was maintained at 50°C. The injection volume was 5µL for each analysis. The mobile phase A was composed of water + 0.1% formic acid and the mobile phase B was methanol + 0.1% formic acid. The separation was done using a gradient, with a flow rate set at 0.7 mL/min throughout the separation:
During analysis, the samples were kept at 10°C, and 5 µL of each sample were injected. After separation by liquid chromatography, the analytes were subjected to MS/MS analysis using a Waters Xevo TQSmicro system (Waters). The analytes were ionized using positive electrospray ionization (positive ESI). The molecules were analyzed using MRM mode. The analyzed plasmalogens contained moieties with C16:0, C18:0, C18:1 at the sn-1 position and fatty acid of chain-length 18 to 24 with 1 to 6 unsaturations at the sn-2 position. […] The cellular levels of plasmalogens were calculated using the area of each plasmalogen divided by protein quantity. […] The acquired data were analyzed by the Waters MassLynx software.

GM16513 cells [2] = assay type: cell-based; details: 3 days, PI positive cells (dead cells)

| % PI+ cells (GM16513 cells [2]; 1.3 µM) [%] | % PI+ cells (GM16513 cells [2]; 10 µM) [%] | SMILES | Concentration (lower dose leading to the maximum effect) (GM 16865) [µM] | Importing cells (%) (GM 16865) | plasmalogen levels (GM16513 cells [1]; treatment over 3 days) | plasmalogen levels (GM16513 cells [1]; 0.5 µM over 3 or 10 days) |
| --- | --- | --- | --- | --- | --- | --- |
| 6 | 29 | CCN(CC)Cc1ccc2cc(COC(=O)Nc3ccc(C(=O)NO)cc3)ccc2c1 [Givinostat (hydrochloride monohydrate), Givinostat] | 0.25 | 20 | increased |  |
| 4 | 21 | O=C(/C=C/c1cccc(S(=O)(=O)Nc2ccccc2)c1)NO [Belinostat] | 0.85 | 35 |  | increased |
